Measurements: US20130045952A1, “ABA Receptor Agonists for Increased Plant Stress Resistance” (Van Andel Research Institute, priority 2011, published 2013)

Key:
Assay type in all cases: biochemical
His6-PYR1 / biotin-HAB1 = target: T1, His6-PYR1 / biotin-HAB1 (Arabidopsis thaliana, UniProt O49686); test: AlphaScreen dose response, PYR1-HAB1 interaction; conditions: 100 nM His6-PYR1, 100 nM biotin-PP2C, 0-100 μM agonist; from dose response curves
T1 construct: made in house; host or cells: E. coli (stated for the PP2Cs; not expressly for PYR1)
T1 sequence (O49686 1-191): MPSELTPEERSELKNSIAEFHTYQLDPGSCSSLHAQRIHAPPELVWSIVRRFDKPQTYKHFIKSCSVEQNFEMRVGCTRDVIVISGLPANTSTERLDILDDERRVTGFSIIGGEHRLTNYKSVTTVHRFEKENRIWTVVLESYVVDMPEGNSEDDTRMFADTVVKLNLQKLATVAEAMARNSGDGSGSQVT
T1 sequence (Q9CAJ0 172-511 partner limits assumed): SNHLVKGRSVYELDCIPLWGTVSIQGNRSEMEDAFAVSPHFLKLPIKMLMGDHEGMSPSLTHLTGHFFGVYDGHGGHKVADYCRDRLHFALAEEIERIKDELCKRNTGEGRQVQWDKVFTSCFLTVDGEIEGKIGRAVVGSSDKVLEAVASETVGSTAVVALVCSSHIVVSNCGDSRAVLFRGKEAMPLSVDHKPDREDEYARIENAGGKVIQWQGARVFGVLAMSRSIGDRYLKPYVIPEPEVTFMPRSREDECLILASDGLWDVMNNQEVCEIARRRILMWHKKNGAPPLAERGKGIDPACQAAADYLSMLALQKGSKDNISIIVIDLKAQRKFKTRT
Experimental: (§1) Interactions between PYR/PYL and PP2Cs were assessed by luminescence-proximity AlphaScreen technology (Perkin Elmer). Briefly, biotinylated PP2Cs were attached to streptavidin-coated donor beads, and H6-tagged PYR/PYL receptors were attached to nickel-chelated acceptor beads. The donor and acceptor beads were brought into proximity by the interactions between PYR/PYLs and PP2Cs, which were measured with and without ligands. When excited by a laser beam of 680 nm, the donor beam emits singlet oxygen that activates thioxene derivatives in the acceptor beads, which releases photons of 520-620 nm as the binding signal. The experiments were conducted with 100 nM of PP2Cs and PYR/PYL proteins in the presence of 5 ug/ml donor and acceptor beads in a buffer of 50 mM MOPS, pH7.4, 50 mM NaF, […], and 0.1 mg/ml bovine serum albumin. The results were based on an average of three experiments with standard errors typically less than 10% of the measurements.
(§2) The results shown in Table 5b were calculated from the dose response curves of the dependence of the interaction between 100 nM His6-PYR1 and 100 nM biotin-PP2C on the presence of 0-100 μM agonists determined by AlphaScreen luminescence proximity assay. Key (EC50 in μM): ++++=<5.0 μM; +++=5-10 μM; ++=10-20 μM; and +=>20-60 μM.

ABI1 = target: T2, ABI1 (Arabidopsis thaliana, UniProt O49686+P49597); test: PP2C phosphatase activity assay, ABI1; conditions: 200 nM PP2C; SnRK2.6 phosphopeptide substrate; None = 100
T2 construct: ABI1 (residues 117-434) and ABI2 (residues 101-423) were expressed as H6Sumo fusion proteins; H6Sumo (N); made in house; host or cells: E. coli BL21
T2 sequence (P49597 117-434 limits assumed): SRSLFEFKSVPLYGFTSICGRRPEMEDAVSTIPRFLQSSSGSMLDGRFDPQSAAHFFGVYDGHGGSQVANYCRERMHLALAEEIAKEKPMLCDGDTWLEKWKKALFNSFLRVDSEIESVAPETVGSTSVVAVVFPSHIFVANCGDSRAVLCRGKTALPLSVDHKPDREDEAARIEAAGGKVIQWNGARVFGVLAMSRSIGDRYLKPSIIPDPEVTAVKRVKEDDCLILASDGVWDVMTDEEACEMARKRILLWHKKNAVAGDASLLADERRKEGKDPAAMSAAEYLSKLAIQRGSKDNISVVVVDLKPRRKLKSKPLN
T2 sequence (O49686 1-191): T1 sequence (O49686 1-191)
Experimental: (§3) Mutant proteins were expressed as H6GST-fusion proteins and purified by glutathione sepharose chromatography. Protein-protein interactions were determined by luminescence proximity AlphaScreen assay. Biotinylated PP2C proteins for the luminescence proximity assay were generated by in vivo biotinylation of avitag-PP2C fusion proteins. PP2C phosphatase activity was measured by phosphate release from a SnRK2.6 phosphoprotein.
(§4) PP2Cs and PYR/PYL proteins were pre-incubated at the indicated concentrations in 50 mM imidazole, pH 7.2, 5 mM MgCl2, 0.1% β-mercaptoethanol and 0.5 mg/ml BSA for 30 min at room temperature. Reactions were started by addition of 100 μM of a phosphopeptide corresponding to amino acids 170-180 of SnRK2.6 (HSQPK^pSTVGTP). This peptide is phosphorylated at a single residue corresponding to Ser175 in SnRK2.6, whose phosphorylation is required for SnRK2.6 kinase activity^32. Phosphate release from ^pS175 from the phosphopeptide was determined by colorimetric assay (BioVision).

His6-PYR1 / biotin-PP2C = target: T3, His6-PYR1 / biotin-PP2C (Arabidopsis thaliana, UniProt O49686); test: AlphaScreen luminescence proximity assay, PYR1-PP2C interaction; conditions: 100 nM His6-PYR1, 100 nM biotin-PP2C, 100 μM agonist; normalized against a pyrabactin control
T3 construct: made in house; host or cells: E. coli is stated for PYL1, PYL2 and the PP2Cs, not expressly for PYR1
T3 sequence (O49686 1-191): T1 sequence (O49686 1-191)
Experimental: as §3, §1
(§5) Values were determined in different experiments and normalized against a pyrabactin control. Blank spaces mean no experimental data is available. Key (photon counts (binding signal units) in Alphascreen luminescence proximity assay): “+++ is >75,000; ++ is 25,000−75,000; + is <25,000.

His6-PYL3 / biotin-PP2C = target: T4, His6-PYL3 / biotin-PP2C (Arabidopsis thaliana, UniProt Q9SSM7); test: AlphaScreen luminescence proximity assay, PYL3-PP2C interaction; conditions: 100 nM His6-PYL3, 100 nM biotin-PP2C, 100 μM agonist; normalized against a pyrabactin control
T4 construct: made in house; host or cells: not expressly stated for PYL3
T4 sequence (Q9SSM7 1-209): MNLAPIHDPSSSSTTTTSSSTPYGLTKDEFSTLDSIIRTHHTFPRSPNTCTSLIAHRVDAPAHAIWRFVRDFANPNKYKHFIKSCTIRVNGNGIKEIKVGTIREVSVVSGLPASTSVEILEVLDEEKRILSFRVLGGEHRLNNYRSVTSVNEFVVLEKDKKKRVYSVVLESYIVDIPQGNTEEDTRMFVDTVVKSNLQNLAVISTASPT
Experimental: as §3, §1, §5

HAB1 = target: T5, HAB1 (Arabidopsis thaliana, UniProt O49686+Q9CAJ0); test: PP2C phosphatase activity assay, HAB1; conditions: 200 nM PP2C; SnRK2.6 phosphopeptide substrate; None = 100
T5 construct: HAB1 (residues 172-511) were prepared as recombinant proteins in E. coli; H6GST or H6Sumo; made in house; host or cells: E. coli
T5 sequence (Q9CAJ0 172-511 limits assumed): T1 sequence (Q9CAJ0 172-511 partner limits assumed)
T5 sequence (O49686 1-191): T1 sequence (O49686 1-191)
Experimental: as §3, §4

His6-PYR1 / biotin-ABI1 = target: T6, His6-PYR1 / biotin-ABI1 (Arabidopsis thaliana, UniProt O49686); test: AlphaScreen dose response, PYR1-ABI1 interaction; conditions: 100 nM His6-PYR1, 100 nM biotin-PP2C, 0-100 μM agonist; from dose response curves
T6 construct: made in house; host or cells: E. coli (stated for the PP2Cs; not expressly for PYR1)
T6 sequence (O49686 1-191): T1 sequence (O49686 1-191)
T6 sequence (P49597 117-434 partner limits assumed): T2 sequence (P49597 117-434 limits assumed)
Experimental: as §1, §2

ABI2 = target: T7, ABI2 (Arabidopsis thaliana, UniProt O04719+O49686); test: PP2C phosphatase activity assay, ABI2; conditions: 200 nM PP2C; SnRK2.6 phosphopeptide substrate; None = 100
T7 construct: ABI1 (residues 117-434) and ABI2 (residues 101-423) were expressed as H6Sumo fusion proteins; H6Sumo (N); made in house; host or cells: E. coli BL21
T7 sequence (O04719 101-423 limits assumed): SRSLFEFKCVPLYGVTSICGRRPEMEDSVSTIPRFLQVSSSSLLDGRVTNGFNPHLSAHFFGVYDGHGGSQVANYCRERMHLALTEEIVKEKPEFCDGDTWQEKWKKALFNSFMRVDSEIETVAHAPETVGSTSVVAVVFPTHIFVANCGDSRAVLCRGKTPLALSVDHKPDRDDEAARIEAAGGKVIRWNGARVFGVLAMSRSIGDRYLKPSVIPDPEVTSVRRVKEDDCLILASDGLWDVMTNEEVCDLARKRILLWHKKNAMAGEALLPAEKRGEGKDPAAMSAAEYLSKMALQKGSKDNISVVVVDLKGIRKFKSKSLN
T7 sequence (O49686 1-191): T1 sequence (O49686 1-191)
Experimental: as §3, §4

His6-PYR1 / biotin-ABI2 = target: T8, His6-PYR1 / biotin-ABI2 (Arabidopsis thaliana, UniProt O49686); test: AlphaScreen dose response, PYR1-ABI2 interaction; conditions: 100 nM His6-PYR1, 100 nM biotin-PP2C, 0-100 μM agonist; from dose response curves
T8 construct: made in house; host or cells: E. coli (stated for the PP2Cs; not expressly for PYR1)
T8 sequence (O49686 1-191): T1 sequence (O49686 1-191)
T8 sequence (O04719 101-423 partner limits assumed): T7 sequence (O04719 101-423 limits assumed)
Experimental: as §1, §2

His6-PYL2 / biotin-PP2C = target: T9, His6-PYL2 / biotin-PP2C (Arabidopsis thaliana, UniProt O80992); test: AlphaScreen luminescence proximity assay, PYL2-PP2C interaction; conditions: 100 nM His6-PYL2, 100 nM biotin-PP2C, 100 μM agonist; normalized against a pyrabactin control
T9 construct: PYL2 (residues 14-188), and HAB1 (residues 172-511) were prepared as recombinant proteins in E. coli; made in house; host or cells: E. coli
T9 sequence (O80992 14-188): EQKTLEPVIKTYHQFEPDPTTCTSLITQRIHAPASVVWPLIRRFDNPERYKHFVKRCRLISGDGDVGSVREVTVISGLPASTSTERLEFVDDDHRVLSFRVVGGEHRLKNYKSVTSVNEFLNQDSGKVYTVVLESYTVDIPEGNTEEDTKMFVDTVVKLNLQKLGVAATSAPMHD
Experimental: as §3, §1, §5

PYL2 A93F = target: T10, PYL2 A93F (Arabidopsis thaliana, UniProt O80992, A93F); test: PP2C binding and phosphatase assays of mutant PYL2 A93F
T10 construct: PYL2 (residues 14-188), and HAB1 (residues 172-511) were prepared as recombinant proteins in E. coli; made in house; host or cells: E. coli (stated for PYL2 in general)
Excerpt: The closest distance between the pyridine ring of pyrabactin and the LPA gating residues is 4.8 Å-7.0 Å when the LPA loop assumes the ABA-bound closed conformation, but is 11-13 Å when the LPA gate is in open conformation. In contrast, the distance of the naphthalene double ring of pyrabactin or the cyclohexene ring of ABA to the three side chains of the LPA gate in the PYL1 structure is 3.4-4.6 Å, a range for strong Van der Waals interactions, thus helping to keep the LPA gate in the closed conformation. […] To validate this hypothesis, we changed the alanine in the LPA loop to a larger residue. […] As expected from structural modeling, replacement of the gate residue A93 with the bulky phenylalanine ring also abrogated ABA to promote PYL2 activation.
as §3
Site-directed mutagenesis was carried out using the QuickChange method (Stratagene). Mutations and all plasmid constructs were confirmed by sequencing.

T10 sequence (O80992 14-188 A93F): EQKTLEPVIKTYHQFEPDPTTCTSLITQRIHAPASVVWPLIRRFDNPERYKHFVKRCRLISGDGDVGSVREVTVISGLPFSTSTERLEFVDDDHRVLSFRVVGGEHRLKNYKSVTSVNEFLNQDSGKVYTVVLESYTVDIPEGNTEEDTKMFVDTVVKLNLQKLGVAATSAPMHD

CSCCCC(NS(=O)(=O)c1ccc(Br)c2ccccc12)C(=O)O (stereo not shown) [Compound 3]
EC50 (His6-PYR1 / biotin-HAB1): < 5 µM
% Phosphatase Activity ABI1 (ABI1): 7.7 ± 4.3%
Stimulation of the interaction between PYR1 and PP2C (binding signal) (His6-PYR1 / biotin-PP2C): ++ (++ is 25,000−75,000)
Stimulation of the interaction between PYL3 and PP2C (binding signal) (His6-PYL3 / biotin-PP2C): +++ (+++ is >75,000)
% Phosphatase Activity HAB1 (HAB1): 17.5 ± 0.6%
EC50 (His6-PYR1 / biotin-ABI1): < 5 µM
% Phosphatase Activity ABI2 (ABI2): 7.0 ± 0.3%
EC50 (His6-PYR1 / biotin-ABI2): < 5 µM
Stimulation of the interaction between PYL2 and PP2C (binding signal) (His6-PYL2 / biotin-PP2C): + (+ is <25,000)

(+)-Abscisic Acid
Activation of mutant PYL2 A93F receptor (PYL2 A93F): abrogated
